According to patent US11207409B2, “X-RAY psoralen activated cancer therapy (X-PACT) with associated treatments” (priority 2017, dated 2021):

Tested on: murine tumor cell lines (breast-4T1, glioma-CT2A, and sarcoma KP15B8)
Protocol: Guava Annexin V flow cell cytometry was used to quantify cytotoxicity in 3 murine tumor cell lines (breast-4T1, glioma-CT2A, and sarcoma KP15B8). In-vitro X-PACT studies were conducted on cells prepared in the following manner. Cells were incubated in appropriate growing media and buffers before being trypsinized and plated evenly onto twelve (12) well plates for 24 hours. About 20 minutes prior to X-PACT irradiation, the wells of each plate were exposed to the following combinations of additives: (1) control ˜cells only with no additives, (2) UVADEX only, (3) phosphors only, (4) UVADEX+phosphors. […] The plates were then irradiated with x-rays by placing the plate at a known distance from the x-ray source (e.g., 50 cm). […]
Two primary flow cytometry metrics were used to evaluate the X-PACT treatments, both determined at 48h after X-PACT treatment. […] The first metric is metabolically viable cell count (or cell viability) determined from the number of whole cells per well as determined using forward scattering (FSC). […] (All wells on a given plate receive the same dose.) The second metric is Annexin V (+) signal, which is the fraction of the metabolically viable cells which expressed a positive Annexin V signal as determined by flow cell cytometry, and include any cells advancing toward early or late apoptotic cell death. […]

3Ca3(PO4)2•Ca(Fl,Cl)2:Sb^3+,Mn^2+ [GTP 4300]
% Viability (1-Toxicity): 70%

Zn2SiO4:Mn
% Viability (1-Toxicity): 75%
